From patent publication US8168651B2, “Protein kinase modulators” (Cylene Pharmaceuticals, Inc., priority 2008, dated 2012)

Columns and labels:
Assay in all cases: Standardized radiometric kinase assays, percentage of activity at 0.5 μM;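 note: Read-out is ³³P-labelled substrate protein phosphorylated by each kinase, captured on filters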
[1] = target: each individual kinase of the panel (Homo sapiens, UniProt Q86Y07)
[2] = target: each individual kinase of the panel (Homo sapiens, UniProt O94806)
[3] = target: each individual kinase of the panel (Homo sapiens, UniProt P42685)
[4] = target: each individual kinase of the panel (Homo sapiens, UniProt P22607)
[5] = target: each individual kinase of the panel (Homo sapiens, UniProt Q5VT25)
[6] = target: each individual kinase of the panel (Homo sapiens, UniProt P36896)
[7] = target: each individual kinase of the panel (Homo sapiens, UniProt Q9BYT3)
[8] = target: each individual kinase of the panel (Homo sapiens, UniProt Q12851)
[9] = target: each individual kinase of the panel (Homo sapiens, UniProt Q86Z02)
[10] = target: each individual kinase of the panel (Homo sapiens, UniProt Q9P286)
[11] = target: each individual kinase of the panel (Homo sapiens, UniProt Q00535)
[12] = target: each individual kinase of the panel (Homo sapiens, UniProt P21802, N549H)
[13] = target: each individual kinase of the panel (Homo sapiens, UniProt P49761)
[14] = target: each individual kinase of the panel (Homo sapiens, UniProt P51817)
[15] = target: each individual kinase of the panel (Homo sapiens, UniProt O00141)
[16] = target: each individual kinase of the panel (Homo sapiens, UniProt P78362)
[17] = target: each individual kinase of the panel (Homo sapiens, UniProt Q16566)
[18] = target: each individual kinase of the panel (Homo sapiens, UniProt P42684)
[19] = target: each individual kinase of the panel (Homo sapiens, UniProt Q9HBY8)
[20] = target: each individual kinase of the panel (Homo sapiens, UniProt Q05513)
[21] = target: each individual kinase of the panel (Homo sapiens, UniProt O96013)
[22] = target: each individual kinase of the panel (Homo sapiens, UniProt Q16539)
[23] = target: each individual kinase of the panel (Homo sapiens, UniProt P10721, D816V)
[24] = target: each individual kinase of the panel (Homo sapiens, UniProt P52564)
[25] = target: each individual kinase of the panel (Homo sapiens, UniProt P53779)
[26] = target: each individual kinase of the panel (Homo sapiens, UniProt Q96BR1)
[27] = target: each individual kinase of the panel (Homo sapiens, UniProt O15264)
[28] = target: each individual kinase of the panel (Homo sapiens, UniProt Q8N4C8)
[29] = target: each individual kinase of the panel (Homo sapiens, UniProt P29323)
[30] = target: each individual kinase of the panel (Homo sapiens, UniProt P09769)
[31] = target: each individual kinase of the panel (Homo sapiens, UniProt P31751)

each individual kinase of the panel (Homo sapiens, UniProt P42684), sequence (P42684 2-1182 limits assumed): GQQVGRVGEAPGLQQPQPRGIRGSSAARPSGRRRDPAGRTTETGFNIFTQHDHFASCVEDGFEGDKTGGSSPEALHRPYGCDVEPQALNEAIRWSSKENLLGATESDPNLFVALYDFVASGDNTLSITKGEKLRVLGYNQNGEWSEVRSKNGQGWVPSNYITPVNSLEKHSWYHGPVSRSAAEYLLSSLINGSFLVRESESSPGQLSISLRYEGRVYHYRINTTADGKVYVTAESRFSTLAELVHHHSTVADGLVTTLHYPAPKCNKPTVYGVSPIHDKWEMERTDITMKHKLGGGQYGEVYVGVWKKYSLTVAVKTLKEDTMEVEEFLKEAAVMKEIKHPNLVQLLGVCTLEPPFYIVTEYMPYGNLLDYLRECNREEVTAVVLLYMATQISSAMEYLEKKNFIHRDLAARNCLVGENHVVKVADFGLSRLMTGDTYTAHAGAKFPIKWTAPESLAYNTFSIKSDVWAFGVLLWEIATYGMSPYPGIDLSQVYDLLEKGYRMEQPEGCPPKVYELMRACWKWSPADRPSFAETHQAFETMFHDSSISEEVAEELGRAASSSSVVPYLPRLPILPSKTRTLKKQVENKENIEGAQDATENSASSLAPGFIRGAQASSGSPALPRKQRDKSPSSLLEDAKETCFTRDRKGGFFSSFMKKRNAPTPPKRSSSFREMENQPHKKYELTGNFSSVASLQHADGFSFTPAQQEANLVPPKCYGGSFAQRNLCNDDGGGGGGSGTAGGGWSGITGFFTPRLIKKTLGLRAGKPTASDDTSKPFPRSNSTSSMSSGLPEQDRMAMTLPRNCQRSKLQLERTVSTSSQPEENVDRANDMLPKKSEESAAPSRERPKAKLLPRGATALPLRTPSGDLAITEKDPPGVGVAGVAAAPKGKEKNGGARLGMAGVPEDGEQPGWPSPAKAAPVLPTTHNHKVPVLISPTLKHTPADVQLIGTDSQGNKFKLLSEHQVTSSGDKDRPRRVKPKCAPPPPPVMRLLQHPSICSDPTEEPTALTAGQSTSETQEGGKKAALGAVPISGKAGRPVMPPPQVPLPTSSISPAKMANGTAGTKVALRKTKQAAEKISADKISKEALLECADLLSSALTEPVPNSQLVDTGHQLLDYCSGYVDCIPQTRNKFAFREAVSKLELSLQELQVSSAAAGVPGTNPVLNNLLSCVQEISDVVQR
each individual kinase of the panel (Homo sapiens, UniProt Q16539), sequence (Q16539 2-360 limits assumed): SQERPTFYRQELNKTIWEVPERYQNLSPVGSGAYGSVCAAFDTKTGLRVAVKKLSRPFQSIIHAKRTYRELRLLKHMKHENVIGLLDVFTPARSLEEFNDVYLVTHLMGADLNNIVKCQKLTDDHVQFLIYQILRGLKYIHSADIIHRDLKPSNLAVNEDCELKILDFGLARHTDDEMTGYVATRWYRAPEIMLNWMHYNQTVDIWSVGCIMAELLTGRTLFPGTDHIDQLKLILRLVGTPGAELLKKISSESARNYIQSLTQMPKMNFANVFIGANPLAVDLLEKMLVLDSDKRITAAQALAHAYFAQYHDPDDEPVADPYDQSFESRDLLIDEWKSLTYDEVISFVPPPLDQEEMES
each individual kinase of the panel (Homo sapiens, UniProt P21802, N549H), sequence (P21802 22-821 N549H limits assumed): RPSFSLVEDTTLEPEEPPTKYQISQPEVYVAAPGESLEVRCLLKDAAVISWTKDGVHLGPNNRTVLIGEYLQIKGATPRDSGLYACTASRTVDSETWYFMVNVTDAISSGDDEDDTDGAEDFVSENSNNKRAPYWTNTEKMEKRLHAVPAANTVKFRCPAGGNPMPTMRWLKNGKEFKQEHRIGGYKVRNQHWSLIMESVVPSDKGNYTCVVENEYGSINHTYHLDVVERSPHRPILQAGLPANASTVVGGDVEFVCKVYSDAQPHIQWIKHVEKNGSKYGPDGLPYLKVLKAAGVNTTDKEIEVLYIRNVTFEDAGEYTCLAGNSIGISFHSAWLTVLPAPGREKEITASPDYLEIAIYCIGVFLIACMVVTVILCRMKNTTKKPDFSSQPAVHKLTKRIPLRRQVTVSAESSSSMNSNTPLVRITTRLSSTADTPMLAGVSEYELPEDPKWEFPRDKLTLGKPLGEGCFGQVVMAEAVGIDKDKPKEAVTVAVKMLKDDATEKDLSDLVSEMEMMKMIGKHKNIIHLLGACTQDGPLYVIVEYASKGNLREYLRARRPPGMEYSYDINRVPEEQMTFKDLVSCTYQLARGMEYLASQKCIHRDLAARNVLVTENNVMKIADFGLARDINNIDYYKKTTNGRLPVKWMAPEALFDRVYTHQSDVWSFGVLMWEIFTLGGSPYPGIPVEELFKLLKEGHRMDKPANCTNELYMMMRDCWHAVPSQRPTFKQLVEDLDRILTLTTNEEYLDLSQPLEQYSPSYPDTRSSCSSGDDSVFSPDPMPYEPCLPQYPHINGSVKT
each individual kinase of the panel (Homo sapiens, UniProt P29323), sequence (P29323 19-1055 limits assumed): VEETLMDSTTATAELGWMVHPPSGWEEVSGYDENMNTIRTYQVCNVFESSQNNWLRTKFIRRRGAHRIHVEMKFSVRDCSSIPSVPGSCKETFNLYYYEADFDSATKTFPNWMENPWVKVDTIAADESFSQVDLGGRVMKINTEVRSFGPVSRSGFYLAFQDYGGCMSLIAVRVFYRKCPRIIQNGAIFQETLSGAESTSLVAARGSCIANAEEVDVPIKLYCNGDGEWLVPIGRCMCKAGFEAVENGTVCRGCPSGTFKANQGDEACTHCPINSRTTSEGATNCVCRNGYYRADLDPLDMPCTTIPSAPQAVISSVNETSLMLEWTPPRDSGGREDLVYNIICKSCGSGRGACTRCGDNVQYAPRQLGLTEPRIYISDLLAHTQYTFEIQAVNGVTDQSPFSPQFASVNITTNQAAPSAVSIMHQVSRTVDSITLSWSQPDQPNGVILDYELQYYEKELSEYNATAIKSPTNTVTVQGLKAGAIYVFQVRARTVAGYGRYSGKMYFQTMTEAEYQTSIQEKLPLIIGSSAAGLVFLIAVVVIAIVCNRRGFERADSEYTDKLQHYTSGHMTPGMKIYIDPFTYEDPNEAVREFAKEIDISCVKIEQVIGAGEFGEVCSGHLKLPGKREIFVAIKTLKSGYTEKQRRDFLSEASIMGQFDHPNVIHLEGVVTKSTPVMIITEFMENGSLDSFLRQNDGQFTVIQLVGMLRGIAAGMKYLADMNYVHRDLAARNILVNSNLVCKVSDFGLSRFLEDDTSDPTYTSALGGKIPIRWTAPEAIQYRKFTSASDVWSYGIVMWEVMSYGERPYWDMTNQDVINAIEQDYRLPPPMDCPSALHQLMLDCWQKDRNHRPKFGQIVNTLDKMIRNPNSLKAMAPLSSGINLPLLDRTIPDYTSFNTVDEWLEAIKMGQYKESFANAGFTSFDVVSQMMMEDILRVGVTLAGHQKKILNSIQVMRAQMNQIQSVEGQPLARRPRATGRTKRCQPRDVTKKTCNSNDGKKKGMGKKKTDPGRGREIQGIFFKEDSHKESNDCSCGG
each individual kinase of the panel (Homo sapiens, UniProt P09769), sequence (P09769 2-529 limits assumed): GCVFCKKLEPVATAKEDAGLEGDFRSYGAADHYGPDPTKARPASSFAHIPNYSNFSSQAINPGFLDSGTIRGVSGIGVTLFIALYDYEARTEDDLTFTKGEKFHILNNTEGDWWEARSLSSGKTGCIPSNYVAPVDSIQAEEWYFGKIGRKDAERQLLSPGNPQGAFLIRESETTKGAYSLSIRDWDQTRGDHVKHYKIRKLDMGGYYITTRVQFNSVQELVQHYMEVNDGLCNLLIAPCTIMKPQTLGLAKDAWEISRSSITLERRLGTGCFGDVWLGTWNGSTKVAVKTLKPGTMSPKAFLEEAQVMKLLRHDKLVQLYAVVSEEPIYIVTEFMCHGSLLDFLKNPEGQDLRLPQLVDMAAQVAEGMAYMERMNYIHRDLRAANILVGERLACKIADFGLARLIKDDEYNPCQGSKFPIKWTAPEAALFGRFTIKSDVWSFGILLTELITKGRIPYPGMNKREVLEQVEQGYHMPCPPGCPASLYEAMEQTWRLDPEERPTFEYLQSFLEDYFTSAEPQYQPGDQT
each individual kinase of the panel (Homo sapiens, UniProt P22607), sequence (P22607 23-806 limits assumed): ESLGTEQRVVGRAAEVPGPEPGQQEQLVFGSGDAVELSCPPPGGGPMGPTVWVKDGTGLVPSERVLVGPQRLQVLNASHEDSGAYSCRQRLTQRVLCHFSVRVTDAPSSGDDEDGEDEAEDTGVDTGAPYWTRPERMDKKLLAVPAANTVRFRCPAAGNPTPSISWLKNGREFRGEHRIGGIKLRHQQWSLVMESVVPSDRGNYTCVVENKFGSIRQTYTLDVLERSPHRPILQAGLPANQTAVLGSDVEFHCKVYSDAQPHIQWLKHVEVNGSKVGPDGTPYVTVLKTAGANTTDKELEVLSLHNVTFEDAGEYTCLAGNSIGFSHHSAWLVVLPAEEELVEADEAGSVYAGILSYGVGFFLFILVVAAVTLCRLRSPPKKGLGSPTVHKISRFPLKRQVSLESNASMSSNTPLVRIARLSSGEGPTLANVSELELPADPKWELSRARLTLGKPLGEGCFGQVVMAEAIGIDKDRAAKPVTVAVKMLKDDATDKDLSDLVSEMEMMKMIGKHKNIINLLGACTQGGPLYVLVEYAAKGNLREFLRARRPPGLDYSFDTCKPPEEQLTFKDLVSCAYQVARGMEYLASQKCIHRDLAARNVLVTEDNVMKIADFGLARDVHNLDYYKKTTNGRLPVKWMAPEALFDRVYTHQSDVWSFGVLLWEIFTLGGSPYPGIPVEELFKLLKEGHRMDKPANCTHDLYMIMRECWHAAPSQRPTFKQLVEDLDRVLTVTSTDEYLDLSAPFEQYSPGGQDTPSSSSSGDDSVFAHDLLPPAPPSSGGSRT

With C#Cc1cccc(Nc2nc3cc(C(=O)O)ccc3c3cncnc23)c1 [drawing 1135] the “VRK2 percentage of activity” value [1] was −3%, the “PRKCN percentage of activity” value [2] was 2% and the “FRK percentage of activity” value [3] was 3%. For the same compound, the “FGFR3 percentage of activity” value [4] was −2%, the “MRCKA percentage of activity” value [5] was −10% and the “ALK4 percentage of activity” value [6] was −15%. For the same compound, the “STK33 percentage of activity” value [7] was 0%, the “GCK percentage of activity” value [8] was 1% and the “HIPK1 percentage of activity” value [9] was 90%. For the same compound, the “PAK5 percentage of activity” value [10] was −8%, the “CDK5/p25 percentage of activity” value [11] was 4% and the “CDK5/p35 percentage of activity” value [11] was −7%. The “FGFR2 (N549H) percentage of activity” value [12] was 4%, the “CLK3 percentage of activity” value [13] was 83% and the “PRKX percentage of activity” value [14] was 3%. The “SGK percentage of activity” value [15] was −1%, the “SRPK2 percentage of activity” value [16] was 36% and the “CAMK4 percentage of activity” value [17] was 2%. For the same compound, the “ABL2 percentage of activity” value [18] was 2%, the “SGK2 percentage of activity” value [19] was 2% and the “PRKCZ percentage of activity” value [20] was −9%. For the same compound, the “PAK4 percentage of activity” value [21] was −12%, the “p38-alpha percentage of activity” value [22] was 1% and the “cKit(D816V) percentage of activity” value [23] was 2%. The “MEK6 percentage of activity” value [24] was 6%, the “JNK3 percentage of activity” value [25] was −3% and the “SGK3 percentage of activity” value [26] was 2%. The “p38-delta percentage of activity” value [27] was −1%, the “MINK percentage of activity” value [28] was −13% and the “EPHB2 percentage of activity” value [29] was 13%. For the same compound, the “FGR percentage of activity” value [30] was 39% and the “AKT2 percentage of activity” value [31] was −10%.
